Test results: article PMC7253423, “Quassinoid analogs with enhanced efficacy for treatment of hematologic malignancies target the PI3Kγ isoform” (Communications Biology, 2020)
Where two headings read alike, the source gives them in different places.

Legend:
[1] = Cytotoxicity, cell viability assay in normal cells; assay type: cell-based, human; conditions: human, PBMC, fraction of 0 μM control, read-out: relative cell viability (Fig 6a), replicates; for viability at 0.00390625 μM: Con. 0.00390625 μM; for viability at 0.015625 μM: Con. 0.015625 μM; for viability at 0.0625 μM: Con. 0.0625 μM; for viability at 1 μM: Con. 1 μM
Text: (§1) Human peripheral blood mononuclear cells (PBMCs), normal T-cells and B-cells were provided by the University of Pennsylvania Human Immunology Core (HIC), and Patient-derived xenografts (PDXs) were obtained from Fox Chase Cancer Center (FCCC). These samples were from different unidentified and healthy donors with written, informed consent. All the procedures were approved by the Institutional Review Board (IRB) and conducted according to the declarations of Helsinki protocols.
(§2) 5000 cells as indicated were cultured in 96-well plate with 100 μl of media. […] After treatment, the cells were incubated with 100 μl buffer for 10 min at room temperature following the instructions of CellTiter-Glo kit (Promega, Madison, WI). Luminescence was detected using a multi-mode reader Cytation 5 (BioTek, Winooski, VT). […] Two independent experiments done in duplicates were performed.

[2] = Cytotoxicity, cell viability assay in normal cells; assay type: cell-based; conditions: human, fraction of 0 μM control; for viability at 0.000244141 μM: Con. 0.000244141 μM; for viability at 0.00390625 μM: Con. 0.00390625 μM; for viability at 0.015625 μM: Con. 0.015625 μM; for viability at 1 μM: Con. 1 μM; for viability at 0.0625 μM: Con. 0.0625 μM
Text: as §1, §2

SU-DHL-4 cells = assay: Cell viability assay (CellTiter-Glo luminescence); assay type: cell-based, human; conditions: Homo sapiens, SU-DHL-4, 144 h; for viability at 0.0390625 µM: read-out: relative cell viability (Fig 6d), replicates, SU-DHL-4, Con. 0.0390625 μM, fraction of 0 μM control; for viability at 0.15625 µM: read-out: relative cell viability (Fig 6d), replicates, SU-DHL-4, Con. 0.15625 μM, fraction of 0 μM control; for viability at 0.625 µM: read-out: relative cell viability (Fig 6d), replicates, SU-DHL-4, Con. 0.625 μM, fraction of 0 μM control; for viability at 10 µM: read-out: relative cell viability (Fig 6d), replicates, SU-DHL-4, Con. 10 μM, fraction of 0 μM control
Description: as §2

Raji cells = assay: Cell viability assay (CellTiter-Glo luminescence); assay type: cell-based, human; conditions: Homo sapiens; for viability at 0.00244141 µM: read-out: relative cell viability (Fig 6f), replicates, Raji, Con. 0.00244141 μM, fraction of 0 μM control; for viability at 0.15625 µM: read-out: relative cell viability (Fig 6f), replicates, Raji, Con. 0.15625 μM, fraction of 0 μM control
Description: as §2

MOLM14 cells = assay: Cell viability assay (CellTiter-Glo luminescence); assay type: cell-based; conditions: Homo sapiens; for viability at 0.625 µM: MOLM-14, read-out: relative cell viability (Fig 6e), replicates, MOLM14, Con. 0.625 μM, fraction of 0 μM control
Description: as §2

[3] = normal B-cells from healthy donors, B-cells, read-out: relative cell viability (Fig 6c), replicates
[4] = normal T-cells from healthy donors, T-cells, read-out: relative cell viability (Fig 6b), replicates

CC[C@H](Nc1ncnc2[nH]cnc12)c1nc2cccc(F)c2c(=O)n1-c1ccccc1 [Idelalisib]
viability at 0.00390625 μM [1]: 99.7%
viability at 0.015625 μM [1]: 111%
viability at 0.0625 μM [1]: 83.8%
viability at 1 μM [1]: 89.1%
viability at 0.000244141 μM [2, 3]: 101%
viability at 0.00390625 μM [2, 3]: 103%
viability at 0.015625 μM [2, 3]: 103%
viability at 1 μM [2, 3]: 81.2%
viability at 0.000244141 μM [2, 4]: 105%
viability at 0.00390625 μM [2, 4]: 102%
viability at 0.015625 μM [2, 4]: 98.9%
viability at 1 μM [2, 4]: 98.7%
viability at 0.0390625 µM (SU-DHL-4 cells): 96.2%
viability at 0.15625 µM (SU-DHL-4 cells): 99.8%
viability at 0.625 µM (SU-DHL-4 cells): 87.1%
viability at 10 µM (SU-DHL-4 cells): 33.1%
viability at 0.00244141 µM (Raji cells): 111%
viability at 0.15625 µM (Raji cells): 114%
viability at 0.625 µM (MOLM14 cells): 113%
viability at […] (MOLM14 cells; MOLM-14, read-out: relative cell viability (Fig 6e), replicates, MOLM14, Con. […], fraction of 0 μM control): 120%

COc1c(OCCCN2CCOCC2)ccc2c1N=C(NC(=O)c1cnc(N)nc1)N1CCN=C21 [Copanlisib]
viability at 0.000244141 μM ([1]; Con. 0.000244141 μM): 104%
viability at 0.00390625 μM [1]: 106%
viability at 0.015625 μM [1]: 92.8%
viability at 0.0625 μM [1]: 73%
viability at 1 μM [1]: 61.4%
viability at 0.000244141 μM [2, 3]: 90.1%
viability at 0.00390625 μM [2, 3]: 95.7%
viability at 0.015625 μM [2, 3]: 91.4%
viability at 0.0625 μM [2, 3]: 79.9%
viability at 1 μM [2, 3]: 52.6%
viability at 0.000244141 μM [2, 4]: 95.3%
viability at 0.00390625 μM [2, 4]: 102%
viability at 0.015625 μM [2, 4]: 94.4%
viability at 0.0625 μM [2, 4]: 107%
viability at 1 μM [2, 4]: 79.9%
viability at 0.00244141 µM (SU-DHL-4 cells; read-out: relative cell viability (Fig 6d), replicates, SU-DHL-4, Con. 0.00244141 μM, fraction of 0 μM control): 122%
viability at 0.0390625 µM (SU-DHL-4 cells): 69%
viability at 0.15625 µM (SU-DHL-4 cells): 42.6%
viability at 0.625 µM (SU-DHL-4 cells): 12.3%
viability at 10 µM (SU-DHL-4 cells): 5.12%
viability at 0.00244141 µM (Raji cells): 94.7%
viability at 0.0390625 µM (Raji cells; read-out: relative cell viability (Fig 6f), replicates, Raji, Con. 0.0390625 μM, fraction of 0 μM control): 91.7%
viability at 0.15625 µM (Raji cells): 102%
viability at 0.625 µM (Raji cells; read-out: relative cell viability (Fig 6f), replicates, Raji, Con. 0.625 μM, fraction of 0 μM control): 67.9%
viability at 10 µM (Raji cells; read-out: relative cell viability (Fig 6f), replicates, Raji, Con. 10 μM, fraction of 0 μM control): 7.75%
viability at 0.00244141 µM (MOLM14 cells; MOLM-14, read-out: relative cell viability (Fig 6e), replicates, MOLM14, Con. 0.00244141 μM, fraction of 0 μM control): 89.1%
viability at 0.0390625 µM (MOLM14 cells; MOLM-14, read-out: relative cell viability (Fig 6e), replicates, MOLM14, Con. 0.0390625 μM, fraction of 0 μM control): 59%
viability at 0.15625 µM (MOLM14 cells; MOLM-14, read-out: relative cell viability (Fig 6e), replicates, MOLM14, Con. 0.15625 μM, fraction of 0 μM control): 58.4%
viability at 0.625 µM (MOLM14 cells): 18.1%
viability at 10 µM (MOLM14 cells; MOLM-14, read-out: relative cell viability (Fig 6e), replicates, MOLM14, Con. 10 μM, fraction of 0 μM control): 4.25%
